Source: US20230338347A1, “New Use of Inhibitors of the Notch Signalling Pathway” (Cellestia Biotech AG, priority 2020, published 2023)
Where a name gives a salt, the structure may show the parent alone.

What was measured:
[1] = Phase I/IIA dose escalation: visual symptoms (eye-related AE) per dose group; type: in vivo, human
Method: The dosing will be 15, 30, 60, 120, 170, 250, 400, or 600 mg of the 6-(4-Tert-Butylphenoxy)Pyridin-3-Amine monohydrochloride salt or higher per day or alternatively 20, 40, 60, 120, 170, 250, 400, or 600 mg of the 6-(4-Tert-Butylphenoxy)Pyridin-3-Amine monohydrochloride salt or higher per day. Dosing of 15, 30, 60, 120, 170, 250, 400, or 600 mg of the 6-(4-Tert-Butylphenoxy)Pyridin-3-Amine monohydrochloride salt corresponds to dosing of 13, 26, 52, 104, 148, 217, 348, or 522 mg of 6-(4-Tert-Butylphenoxy)Pyridin-3-Amine (free base). Dosing of 20, 40, 60, 120, 170, 250, 400, or 600 mg of the 6-(4-Tert-Butylphenoxy)Pyridin-3-Amine monohydrochloride salt corresponds to dosing of 17, 35, 52, 104, 148, 217, 348, or 522 mg of 6-(4-Tert-Butylphenoxy)Pyridin-3-Amine (free base). For this study, 6-(4-Tert-Butylphenoxy)Pyridin-3-Amine monohydrochloride salt was formulated into a capsule having a drug load of 5, 10, 20, 50 and 100 mg, respectively intended to be administered orally. • Patients will meet the following criteria:
In the dose escalation cohort, patients in dose group (DG) 4 receiving 120mg of 6-(4-Tert-Butylphenoxy)Pyridin-3-Amine monohydrochloride salt and patients in higher dose groups reported visual symptoms with increasing incidence. It is believed that the occurrence of visual symptoms is a pharmacodynamic effect of 6-(4-Tert-Butylphenoxy)Pyridin-3-Amine. This makes a dose of 120 mg and higher of the 6-(4-Tert-Butylphenoxy)Pyridin-3-Amine monohydrochloride salt the therapeutic dose of choice.

NOTCH target genes [2] = assay: NOTCH target gene expression in whole blood of Phase 1 patients (Nanostring); type: in vivo; conditions: Homo sapiens, 600 mg dose group, CCND3, HEY1, IL7Rα, NOTCH1, NOTCH2, read-out: Inhibition range, NOTCH target down regulation
Method: In addition to hair follicles, gene expression profiling to measure changes in NOTCH target genes was also performed in whole blood as an alternative surrogate tissue.
Whole blood samples for gene expression analysis were collected in PAXgene Blood RNA Tubes and RNA extracted following their standard Blood RNA Kit for silica-membrane-based RNA isolation and purification (Beckton Dickinson). RNA samples were tested for gene expression profiling on a Nanostring platform.
(§1) Table 1: NOTCH target down regulation in hair follicles and blood cells from Phase 1 patients. Target gene down regulation (CCND3, cyclin-D3; HES1, Hairy and enhance of split-1; HES4, Hairy and enhance of split-4; HESS, Hairy and enhance of split-5; HEY1, hes related family bHLH transcription factor with YRPW motif1; HEY2; hes related family bHLH transcription factor with YRPW motif 2; HEYL, hes-related family bHLH transcription factor with YRPW motif-like; IL7R-α, Interleukin-7 receptor subunit alpha; NOTCH1; NOTCH2; NRARP (NOTCH Regulated Ankyrin Repeat Protein): […]

NOTCH target genes [3] = assay: NOTCH target gene expression in hair follicles of Phase 1 patients (Nanostring); type: in vivo, human; conditions: Homo sapiens, hair follicle, read-out: Inhibition range, NOTCH target down regulation
Source text: Hair follicles were obtained at pre-defined time points to measure changes in NOTCH target genes expression by 6-(4-Tert-Butylphenoxy)Pyridin-3-Amine treatment. NOTCH target gene down-regulation in hair follicles has been reported to be a robust and indicative biomarker that correlates with both clinical efficacy and the incidence of DLTs (Tanis K Q, et al. Clin Pharmacol Ther 2016; 99(4):370-80; Cook N, et al. BJC 2018; 118(6):793-801).
Between 5 to 10 hairs were plucked to extract the complete and undamaged hairbulb (full hair follicle), and processed as described in Camidge D R, et al. Br J Cancer 2005; 92:1837-41 and Bradley B J, et al. Mol EcolNotes 2005; 5:961-4. RNA concentration was measured by Qubit (RNAHighSensitivity), and RNA integrity was evaluated on a RNA 6000 Pico chip. RNA samples were tested for gene expression profiling on a Nanostring platform.
as §1

**Q.** Which “Eye-related AE, % on total pts per DG” value ([1]; DG4 (120 mg)) does the source give for `CC(C)(C)c1ccc(Oc2ccc(N)cn2)cc1` [6-(4-Tert-Butylphenoxy)Pyridin-3-Amine monohydrochloride] here?
**A.** 43%

**Q.** What about the “dose at and above which visual symptoms were reported (increasing incidence)” value ([1]; DG4 and higher dose groups, once daily oral) of the same compound?
**A.** ≥ 120 mg

**Q.** What about the “Eye-related AE, % on total pts per DG” value ([1]; DG5 (170 mg)) of the same compound?
**A.** 67%

**Q.** And the “Eye-related AE, % on total pts per DG” value ([1]; DG6 (250 mg))?
**A.** 75%

**Q.** What about the “Eye-related AE, % on total pts per DG” value ([1]; DG7 (400 mg)) of the same compound?
**A.** 67%

**Q.** What about the “Eye-related AE, % on total pts per DG” value ([1]; DG8 (600 mg)) of the same compound?
**A.** 67%

**Q.** What about the “Adaptative visual difficulty, #AEs” value ([1]; all dose groups) of the same compound?
**A.** 1

**Q.** And the “Blurred vision, #AEs” value ([1]; all dose groups)?
**A.** 6

**Q.** And the “Eye disorder, #AEs” value ([1]; all dose groups)?
**A.** 2

**Q.** And the “Eye-related AE Total, #AEs” value ([1]; all dose groups)?
**A.** 26

**Q.** What about the “Intermittent color vision deficiency/ Intermittent blurred vision, #AEs” value ([1]; all dose groups) of the same compound?
**A.** 2

**Q.** And the “Photophobia, #AEs” value ([1]; all dose groups)?
**A.** 2

**Q.** And the “Photopsy, #AEs” value ([1]; all dose groups)?
**A.** 3

**Q.** And the “Transient defect in accommodation to dim light, #AEs” value ([1]; all dose groups)?
**A.** 7

**Q.** What about the “Visual alteration, #AEs” value ([1]; all dose groups) of the same compound?
**A.** 2

**Q.** What about the “Visual disturbance in light exposure, #AEs” value ([1]; all dose groups) of the same compound?
**A.** 1

**Q.** What about the inhibition at 600 mg (NOTCH target genes [2]) of the same compound?
**A.** ≤ 50%

**Q.** What about the inhibition at 60 mg (NOTCH target genes [3]; 60 mg dose group, HES4, HES5, NRARP) of the same compound?
**A.** ≤ 80%

**Q.** What about the inhibition at 120 mg (NOTCH target genes [3]; 120 mg dose group, CCND3, HES4, HES5, HEYL, HEY2) of the same compound?
**A.** ≤ 95%

**Q.** And the inhibition at 170 mg (NOTCH target genes [3]; 170 mg dose group, HES1)?
**A.** ≤ 75%

**Q.** And the inhibition at 250 mg (NOTCH target genes [3]; 250 mg dose group, CCND3, HES1, HEY2, NRARP)?
**A.** ≤ 80%
